Laboratory results reported in patent US4684664A, “Derivatives of β-(4-isocyano-1,2,3,4-diepoxycyclopentyl) acrylic acid” (Kureha Kagaku Kogyo Kabushiki Kaisha, priority 1984, dated 1987).
≈ marks a conversion by molar mass, not a printed value. Like-named read-outs stand apart in the source and are kept apart here.

Assays:
Type in all cases: cell-based
[1] = tested on: Escherichia coli K12 C600 IAM 1264; assay: Antibacterial activity, agar-dilution MIC, organism No. 6; settings: Escherichia coli
In short: (§1)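 Endpoint: MIC in μg/ml of culture medium. Method: agar dilution. Medium: bouillon agar.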

[2] = tested on: Klebsiella pneumoniae PCI-602; assay: Antibacterial activity, agar-dilution MIC, organism No. 7; settings: Klebsiella pneumoniae
In short: as §1

[3] = tested on: Salmonella enteritidis G 14; assay: Antibacterial activity, agar-dilution MIC, organism No. 12; settings: Salmonella enterica, ENTERITIDIS, read-out: Minimum Inhibitory Concentration
In short: as §1

[4] = tested on: Proteus morganii IFO 3848; assay: Antibacterial activity, agar-dilution MIC, organism No. 18; settings: Morganella morganii
In short: as §1

[5] = tested on: Pseudomonas aeruginosa IFO 3445; assay: Antibacterial activity, agar-dilution MIC, organism No. 15; settings: Pseudomonas aeruginosa
In short: as §1

[6] = tested on: Staphylococcus aureus FDA 209PJc-1; assay: Antibacterial activity, agar-dilution MIC, organism No. 1; settings: Staphylococcus aureus
In short: as §1

[7] = tested on: Enterobacter aerogenes ATCC 13048; assay: Antibacterial activity, agar-dilution MIC, organism No. 23; settings: Klebsiella aerogenes
In short: as §1

[8] = tested on: Bacillus subtilis ATCC 6633; assay: Antibacterial activity, agar-dilution MIC, organism No. 14; settings: Bacillus subtilis
In short: as §1

Proteus vulgaris OX-19 = assay: Antibacterial activity, agar-dilution MIC, organism No. 20; settings: Proteus vulgaris
In short: as §1

[9] = tested on: Salmonella typhimurium IID 971; assay: Antibacterial activity, agar-dilution MIC, organism No. 8; settings: Salmonella enterica, read-out: Minimum Inhibitory Concentration
In short: as §1

[10] = tested on: Staphylococcus aureus Terajima; assay: Antibacterial activity, agar-dilution MIC, organism No. 2; settings: Staphylococcus aureus, read-out: Minimum Inhibitory Concentration
In short: as §1

[11] = tested on: Streptococcus pyogenes Cook; assay: Antibacterial activity, agar-dilution MIC, organism No. 4; settings: Streptococcus pyogenes, read-out: Minimum Inhibitory Concentration
In short: as §1

[12] = tested on: Staphylococcus aureus MS 353; assay: Antibacterial activity, agar-dilution MIC, organism No. 3; settings: Staphylococcus aureus
In short: as §1

[13] = tested on: Pseudomonas aeruginosa PAO 1; assay: Antibacterial activity, agar-dilution MIC, organism No. 17; settings: Pseudomonas aeruginosa
In short: as §1

Salmonella typhi 901 = assay: Antibacterial activity, agar-dilution MIC, organism No. 9; settings: Salmonella enterica, TYPHI, read-out: Minimum Inhibitory Concentration
In short: as §1

[14] = tested on: Escherichia coli NIHJ-JC-2; assay: Antibacterial activity, agar-dilution MIC, organism No. 5; settings: Escherichia coli
In short: as §1

[15] = tested on: Pseudomonas aeruginosa NCTC 10490; assay: Antibacterial activity, agar-dilution MIC, organism No. 16; settings: Pseudomonas aeruginosa
In short: as §1

[16] = tested on: Salmonella shottmuelleri 8006; assay: Antibacterial activity, agar-dilution MIC, organism No. 11
In short: as §1

[17] = tested on: Micrococcus luteus ATCC 9341; assay: Antibacterial activity, agar-dilution MIC, organism No. 25; settings: Micrococcus luteus
In short: as §1

Proteus vulgaris HX-19 = assay: Antibacterial activity, agar-dilution MIC, organism No. 21; settings: Proteus vulgaris
In short: as §1

Enterobacter cloacae 963 = assay: Antibacterial activity, agar-dilution MIC, organism No. 24
In short: as §1

[18] = tested on: Candida albicans IAM 4905; assay: Antifungal activity, agar-dilution MIC, organism No. 29; settings: Candida albicans
In short: as §1

[19] = tested on: Serratia marcescens IAM 1184; assay: Antibacterial activity, agar-dilution MIC, organism No. 13; settings: Serratia marcescens
Text: Agar-dilution method was used for determination of the antibacterial activity and antifungal activity while using bouillon-agar culture medium, and the minimum inhibitory concentration of the specimen was expressed by μg/ml of the culture medium.

[20] = tested on: Aspergillus niger IFO 6342; assay: Antifungal activity, agar-dilution MIC, organism No. 30; settings: Aspergillus niger
In short: as §1

[21] = tested on: Salmonella paratyphi-A 1015; assay: Antibacterial activity, agar-dilution MIC, organism No. 10; settings: Salmonella enterica, PARATYPHI, read-out: Minimum Inhibitory Concentration
In short: as §1

[22] = tested on: Proteus rettgeri IFO 3850; assay: Antibacterial activity, agar-dilution MIC, organism No. 22; settings: Providencia rettgeri
In short: as §1

[23] = tested on: Proteus mirabilis IFO 3849; assay: Antibacterial activity, agar-dilution MIC, organism No. 19; settings: Proteus mirabilis
In short: as §1

[24] = tested on: Streptococcus pyogenes IFO 3340; assay: Antibacterial activity, agar-dilution MIC, organism No. 26; settings: Streptococcus pyogenes, IFO3340; Organism No. 26, bouillon-agar; read-out: Minimum Inhibitory Concentration
In short: as §1

[25] = IAM1264, Organism No. 6, bouillon-agar, read-out: Minimum Inhibitory Concentration
[26] = PCI602, Organism No. 7, bouillon-agar, read-out: Minimum Inhibitory Concentration
[27] = IFO3848, Organism No. 18, bouillon-agar, read-out: Minimum Inhibitory Concentration
[28] = IFO3445, Organism No. 15, bouillon-agar, read-out: Minimum Inhibitory Concentration
[29] = FDA209PJC1, Organism No. 1, bouillon-agar, read-out: Minimum Inhibitory Concentration
[30] = ATCC13048, Organism No. 23, bouillon-agar, read-out: Minimum Inhibitory Concentration
[31] = ATCC6633, Organism No. 14, bouillon-agar, read-out: Minimum Inhibitory Concentration
[32] = OX19, Organism No. 20, bouillon-agar, read-out: Minimum Inhibitory Concentration
[33] = MS353, Organism No. 3, bouillon-agar, read-out: Minimum Inhibitory Concentration
[34] = PAO1, Organism No. 17, bouillon-agar, read-out: Minimum Inhibitory Concentration
[35] = NIHJJC2, Organism No. 5, bouillon-agar, read-out: Minimum Inhibitory Concentration
[36] = NCTC10490, Organism No. 16, bouillon-agar, read-out: Minimum Inhibitory Concentration
[37] = Salmonella, 8006, Organism No. 11, bouillon-agar, read-out: Minimum Inhibitory Concentration
[38] = ATCC9341, Organism No. 25, bouillon-agar, read-out: Minimum Inhibitory Concentration
[39] = HX19, Organism No. 21, bouillon-agar, read-out: Minimum Inhibitory Concentration
[40] = Enterobacter cloacae, 963, Organism No. 24, bouillon-agar, read-out: Minimum Inhibitory Concentration
[41] = IAM4905, Organism No. 29, bouillon-agar, read-out: Minimum Inhibitory Concentration
[42] = IAM1184, Organism No. 13, bouillon-agar, read-out: Minimum Inhibitory Concentration
[43] = IFO6342, Organism No. 30, bouillon-agar, read-out: Minimum Inhibitory Concentration
[44] = IFO3850, Organism No. 22, bouillon-agar, read-out: Minimum Inhibitory Concentration
[45] = IFO3849, Organism No. 19, bouillon-agar, read-out: Minimum Inhibitory Concentration

[C-]#[N+]C12CC3(/C=C/C(=O)Nc4ccncc4)OC3C1O2 (centres unmarked) [compound 72]
MIC ([1]; IAM1264, read-out: Minimum Inhibitory Concentration): 50 µg/mL (≈ 186 µM)
MIC ([2]; PCI602, read-out: Minimum Inhibitory Concentration): 3.13 µg/mL (≈ 11.6 µM)
MIC [3]: 12.5 µg/mL (≈ 46.4 µM)
MIC ([4]; IFO3848, read-out: Minimum Inhibitory Concentration): 6.25 µg/mL (≈ 23.2 µM)
MIC ([5]; IFO3445, read-out: Minimum Inhibitory Concentration): > 200 µg/mL
MIC ([6]; FDA209PJC1, read-out: Minimum Inhibitory Concentration): 1.56 µg/mL (≈ 5.79 µM)
MIC ([7]; ATCC13048, read-out: Minimum Inhibitory Concentration): > 200 µg/mL
MIC ([8]; ATCC6633, read-out: Minimum Inhibitory Concentration): 12.5 µg/mL (≈ 46.4 µM)
MIC (Proteus vulgaris OX-19; OX19, read-out: Minimum Inhibitory Concentration): 6.25 µg/mL (≈ 23.2 µM)
MIC [9]: 25 µg/mL (≈ 92.8 µM)
MIC [10]: 6.25 µg/mL (≈ 23.2 µM)
MIC [11]: 12.5 µg/mL (≈ 46.4 µM)
MIC ([12]; MS353, read-out: Minimum Inhibitory Concentration): 3.13 µg/mL (≈ 11.6 µM)
MIC ([13]; PAO1, read-out: Minimum Inhibitory Concentration): > 200 µg/mL
MIC (Salmonella typhi 901): 12.5 µg/mL (≈ 46.4 µM)
MIC ([14]; NIHJJC2, read-out: Minimum Inhibitory Concentration): 50 µg/mL (≈ 186 µM)
MIC ([15]; NCTC10490, read-out: Minimum Inhibitory Concentration): > 200 µg/mL
MIC ([16]; Salmonella, 8006, read-out: Minimum Inhibitory Concentration): 6.25 µg/mL (≈ 23.2 µM)
MIC ([17]; ATCC9341, read-out: Minimum Inhibitory Concentration): 50 µg/mL (≈ 186 µM)
MIC (Proteus vulgaris HX-19; HX19, read-out: Minimum Inhibitory Concentration): 6.25 µg/mL (≈ 23.2 µM)
MIC (Enterobacter cloacae 963; Enterobacter cloacae, 963, read-out: Minimum Inhibitory Concentration): 200 µg/mL (≈ 743 µM)
MIC ([18]; IAM4905, read-out: Minimum Inhibitory Concentration): 6.25 µg/mL (≈ 23.2 µM)
MIC ([19]; IAM1184, read-out: Minimum Inhibitory Concentration): 100 µg/mL (≈ 371 µM)
MIC ([20]; IFO6342, read-out: Minimum Inhibitory Concentration): 6.25 µg/mL (≈ 23.2 µM)
MIC [21]: 3.13 µg/mL (≈ 11.6 µM)
MIC ([22]; IFO3850, read-out: Minimum Inhibitory Concentration): 200 µg/mL (≈ 743 µM)
MIC ([23]; IFO3849, read-out: Minimum Inhibitory Concentration): > 200 µg/mL

[C-]#[N+]C12CC3(/C=C/C(=O)Nc4ccc(OCCC)cc4)OC3C1O2 (centres unmarked) [compound 73]
MIC [1, 25]: > 200 µg/mL
MIC [2, 26]: 1.56 µg/mL (≈ 4.78 µM)
MIC ([3]; Organism No. 12, bouillon-agar): > 200 µg/mL
MIC [4, 27]: 12.5 µg/mL (≈ 38.3 µM)
MIC [5, 28]: > 200 µg/mL
MIC [6, 29]: 0.78 µg/mL (≈ 2.39 µM)
MIC [7, 30]: > 200 µg/mL
MIC [8, 31]: 12.5 µg/mL (≈ 38.3 µM)
MIC (Proteus vulgaris OX-19; [32]): 1.56 µg/mL (≈ 4.78 µM)
MIC ([9]; Organism No. 8, bouillon-agar): > 200 µg/mL
MIC ([10]; Organism No. 2, bouillon-agar): 1.56 µg/mL (≈ 4.78 µM)
MIC ([11]; Organism No. 4, bouillon-agar): 100 µg/mL (≈ 306 µM)
MIC [12, 33]: 1.56 µg/mL (≈ 4.78 µM)
MIC [13, 34]: > 200 µg/mL
MIC (Salmonella typhi 901): 50 µg/mL (≈ 153 µM)
MIC [14, 35]: > 200 µg/mL
MIC [24]: 1.56 µg/mL (≈ 4.78 µM)
MIC [15, 36]: > 200 µg/mL
MIC [16, 37]: 1.56 µg/mL (≈ 4.78 µM)
MIC [17, 38]: 1.56 µg/mL (≈ 4.78 µM)
MIC (Proteus vulgaris HX-19; [39]): 0.78 µg/mL (≈ 2.39 µM)
MIC (Enterobacter cloacae 963; [40]): > 200 µg/mL
MIC [18, 41]: 12.5 µg/mL (≈ 38.3 µM)
MIC [19, 42]: > 200 µg/mL
MIC [20, 43]: 12.5 µg/mL (≈ 38.3 µM)
MIC [21]: 0.39 µg/mL (≈ 1.2 µM)
MIC [22, 44]: > 200 µg/mL
MIC [23, 45]: > 200 µg/mL

[C-]#[N+]C12CC3(/C=C/C(=O)Nc4ccc(OC(C)C)cc4)OC3C1O2 (centres unmarked) [compound 74]
MIC [1, 25]: > 200 µg/mL
MIC [2, 26]: 1.56 µg/mL (≈ 4.78 µM)
MIC ([3]; Organism No. 12, bouillon-agar): 200 µg/mL (≈ 613 µM)
MIC [4, 27]: 6.25 µg/mL (≈ 19.2 µM)
MIC [5, 28]: > 200 µg/mL
MIC [6, 29]: 0.78 µg/mL (≈ 2.39 µM)
MIC [7, 30]: > 200 µg/mL
MIC [8, 31]: 6.25 µg/mL (≈ 19.2 µM)
MIC (Proteus vulgaris OX-19; [32]): 1.56 µg/mL (≈ 4.78 µM)
MIC ([9]; Organism No. 8, bouillon-agar): > 200 µg/mL
MIC ([10]; Organism No. 2, bouillon-agar): 6.25 µg/mL (≈ 19.2 µM)
MIC ([11]; Organism No. 4, bouillon-agar): 100 µg/mL (≈ 306 µM)
MIC [12, 33]: 1.56 µg/mL (≈ 4.78 µM)
MIC [13, 34]: > 200 µg/mL
MIC (Salmonella typhi 901): 12.5 µg/mL (≈ 38.3 µM)
MIC [14, 35]: > 200 µg/mL
MIC [24]: 3.13 µg/mL (≈ 9.59 µM)
MIC [15, 36]: > 200 µg/mL
MIC [16, 37]: 3.13 µg/mL (≈ 9.59 µM)
MIC [17, 38]: 12.5 µg/mL (≈ 38.3 µM)
MIC (Proteus vulgaris HX-19; [39]): 1.56 µg/mL (≈ 4.78 µM)
MIC (Enterobacter cloacae 963; [40]): > 200 µg/mL
MIC [18, 41]: 12.5 µg/mL (≈ 38.3 µM)
MIC [19, 42]: > 200 µg/mL
MIC [20, 43]: 12.5 µg/mL (≈ 38.3 µM)
MIC [21]: 1.56 µg/mL (≈ 4.78 µM)
MIC [22, 44]: 100 µg/mL (≈ 306 µM)
MIC [23, 45]: > 200 µg/mL
